Assay results: patent US6458788B1, “4-hydroxycinnoline-3-carboxyamides as antiviral agents” (Pharmacia & Upjohn Company, priority 2000, dated 2002)

Tests used:
[1] = target: T1, HCMV polymerase (Human cytomegalovirus, UniProt P08546); test: HCMV polymerase scintillation proximity assay (modified version); assay type: biochemical; settings: at a concentration of 20 μM; read-out: percent inhibition of the viral polymerase, HCMV
T1 construct: made in house; host or cells: recombinant baculovirus-infected SF-9 cells
T1 sequence (P08546 whole entry): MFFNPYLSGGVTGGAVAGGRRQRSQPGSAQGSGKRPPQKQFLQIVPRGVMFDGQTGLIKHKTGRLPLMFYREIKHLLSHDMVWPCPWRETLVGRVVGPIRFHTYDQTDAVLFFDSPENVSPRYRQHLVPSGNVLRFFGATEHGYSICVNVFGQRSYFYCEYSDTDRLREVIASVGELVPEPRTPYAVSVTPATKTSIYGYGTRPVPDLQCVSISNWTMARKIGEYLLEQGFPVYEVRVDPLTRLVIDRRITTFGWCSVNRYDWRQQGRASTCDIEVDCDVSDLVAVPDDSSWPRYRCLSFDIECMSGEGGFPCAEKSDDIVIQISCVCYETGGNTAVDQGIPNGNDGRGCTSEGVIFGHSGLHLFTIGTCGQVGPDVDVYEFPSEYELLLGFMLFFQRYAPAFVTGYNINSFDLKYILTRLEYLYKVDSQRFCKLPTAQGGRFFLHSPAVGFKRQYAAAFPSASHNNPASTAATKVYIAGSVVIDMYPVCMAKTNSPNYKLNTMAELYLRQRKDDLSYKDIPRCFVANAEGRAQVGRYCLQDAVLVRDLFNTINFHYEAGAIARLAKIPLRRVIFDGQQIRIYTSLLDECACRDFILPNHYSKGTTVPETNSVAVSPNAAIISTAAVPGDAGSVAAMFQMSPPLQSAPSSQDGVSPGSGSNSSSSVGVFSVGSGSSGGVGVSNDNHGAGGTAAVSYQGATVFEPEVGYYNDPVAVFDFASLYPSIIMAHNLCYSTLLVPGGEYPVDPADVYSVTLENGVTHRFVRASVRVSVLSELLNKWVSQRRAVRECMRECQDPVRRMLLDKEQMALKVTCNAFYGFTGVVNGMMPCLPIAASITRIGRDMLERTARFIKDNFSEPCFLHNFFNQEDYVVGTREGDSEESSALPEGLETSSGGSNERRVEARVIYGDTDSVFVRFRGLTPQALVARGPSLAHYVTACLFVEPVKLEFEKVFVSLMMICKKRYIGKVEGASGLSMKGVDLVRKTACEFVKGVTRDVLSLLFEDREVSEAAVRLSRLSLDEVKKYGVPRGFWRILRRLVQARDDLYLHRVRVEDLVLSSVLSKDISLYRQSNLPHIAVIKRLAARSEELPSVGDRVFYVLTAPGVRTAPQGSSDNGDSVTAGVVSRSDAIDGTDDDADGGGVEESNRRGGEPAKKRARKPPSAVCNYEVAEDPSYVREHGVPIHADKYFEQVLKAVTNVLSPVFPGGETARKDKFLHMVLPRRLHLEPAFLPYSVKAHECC
Experimental: The HCMV polymerase assay is performed using a scintillation proximity assay (SPA) as described in several references, such as N. D. Cook, et al., Pharmaceutical Manufacturing International, pages 49-53 (1992); K. Takeuchi, Laboratory Practice, September issue (1992); U.S. Pat. No. 4,568,649 (1986); which are incorporated by reference herein. Reactions are performed in 96-well plates. The assay is conducted in 100 μl volume with 5.4 mM HEPES (pH 7.5), 11.7 mM KCl, 4.5 mM MgCl2, 0.36 mg/ml BSA, and 90 nM ^3H-dTTP. Assays are run with and without CHAPS, (3-[(3-cholamidopropyl)-dimethylammonio]-1-propane-sulfonate) at a final concentration of 2 mM. HCMV polymerase is diluted in enzyme dilution buffer containing 50% glycerol, 250 mM NaCl, 10 mM HEPES (pH 7.5), 100 μg/ml BSA, and 0.01% sodium azide. The HCMV polymerase, which is expressed in recombinant baculovirus-infected SF-9 cells and purified according to literature procedures, is added at 10% (or 10 μl) of the final reaction volume, i.e., 100 μl. Compounds are diluted in 50% DMSO and 10 μl are added to each well. Control wells contain an equivalent concentration of DMSO. Unless noted otherwise, reactions are initiated via the addition of 6 nM biotinylated poly(dA)-oligo(dT) template/primer to reaction mixtures containing the enzyme, substrate, and compounds of interest. Plates are incubated in a 25° C. or 37° C. H2O bath and terminated via the addition of 40 μl/reaction of 0.5 M EDTA (pH 8) per well. Reactions are terminated within the time-frame during which substrate incorporation is linear and varied depending upon the enzyme and conditions used, i.e., 30 min. for HCMV polymerase. Ten μl of streptavidin-SPA beads (20 mg/ml in PBS/10% glycerol) are added following termination of the reaction. Plates are incubated 10 min. at 37° C., then equilibrated to room temperature, and counted on a Packard Topcount. Linear regressions are performed and IC50's are calculated using computer software.
A modified version of the above HCMV polymerase assay is performed as described above, but with the following changes: Compounds are diluted in 100% DMSO until final dilution into assay buffer. In the previous assay, compounds are diluted in 50% DMSO. 4.5 mM dithiotherotol (DTT) is added to the polymerase buffer. […] All results are listed as the percent inhibition of the viral polymerase at a concentration of 20 μM. In Table 1, the term “nd” refers to activity data not determined.

[2] = target: VZV polymerase (Varicella-zoster virus, UniProt P09252); test: VZV polymerase assay (Table 1, viral polymerase inhibition); assay type: biochemical; settings: at a concentration of 20 μM; read-out: percent inhibition of the viral polymerase, VZV
Chain of VZV polymerase (P09252 whole entry): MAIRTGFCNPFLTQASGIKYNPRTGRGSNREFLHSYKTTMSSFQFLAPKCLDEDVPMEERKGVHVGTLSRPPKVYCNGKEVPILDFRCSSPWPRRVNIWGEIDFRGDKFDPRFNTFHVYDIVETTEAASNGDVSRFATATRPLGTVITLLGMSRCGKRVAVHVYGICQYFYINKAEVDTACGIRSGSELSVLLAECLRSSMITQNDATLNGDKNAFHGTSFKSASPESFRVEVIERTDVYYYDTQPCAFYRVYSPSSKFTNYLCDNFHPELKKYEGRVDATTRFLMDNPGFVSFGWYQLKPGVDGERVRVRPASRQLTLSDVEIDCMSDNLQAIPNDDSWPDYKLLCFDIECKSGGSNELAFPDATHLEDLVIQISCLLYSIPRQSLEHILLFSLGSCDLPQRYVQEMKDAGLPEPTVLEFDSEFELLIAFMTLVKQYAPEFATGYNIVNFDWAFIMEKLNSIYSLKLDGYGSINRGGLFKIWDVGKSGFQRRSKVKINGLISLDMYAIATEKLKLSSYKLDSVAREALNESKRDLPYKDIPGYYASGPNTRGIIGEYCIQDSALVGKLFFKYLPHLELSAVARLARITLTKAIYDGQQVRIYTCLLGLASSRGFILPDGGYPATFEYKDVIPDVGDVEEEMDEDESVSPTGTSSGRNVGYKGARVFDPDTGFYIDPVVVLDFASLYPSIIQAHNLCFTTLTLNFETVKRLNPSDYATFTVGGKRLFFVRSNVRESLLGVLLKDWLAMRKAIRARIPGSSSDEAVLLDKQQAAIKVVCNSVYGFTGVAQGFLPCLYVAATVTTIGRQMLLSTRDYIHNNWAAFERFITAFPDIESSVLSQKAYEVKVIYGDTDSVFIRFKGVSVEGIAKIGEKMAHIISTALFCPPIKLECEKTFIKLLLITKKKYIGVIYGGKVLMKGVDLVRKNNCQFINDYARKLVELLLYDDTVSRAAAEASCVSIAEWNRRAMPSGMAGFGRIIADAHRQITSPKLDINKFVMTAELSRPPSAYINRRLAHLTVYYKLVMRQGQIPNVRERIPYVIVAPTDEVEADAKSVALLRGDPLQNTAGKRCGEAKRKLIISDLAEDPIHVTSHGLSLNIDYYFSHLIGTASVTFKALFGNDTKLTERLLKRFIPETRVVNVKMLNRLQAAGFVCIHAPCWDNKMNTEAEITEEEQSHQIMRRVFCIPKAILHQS
Experimental: The HCMV polymerase assay is performed using a scintillation proximity assay (SPA) as described in several references, such as N. D. Cook, et al., Pharmaceutical Manufacturing International, pages 49-53 (1992); K. Takeuchi, Laboratory Practice, September issue (1992); U.S. Pat. No. 4,568,649 (1986); which are incorporated by reference herein. Reactions are performed in 96-well plates. The assay is conducted in 100 μl volume with 5.4 mM HEPES (pH 7.5), 11.7 mM KCl, 4.5 mM MgCl2, 0.36 mg/ml BSA, and 90 nM ^3H-dTTP. Assays are run with and without CHAPS, (3-[(3-cholamidopropyl)-dimethylammonio]-1-propane-sulfonate) at a final concentration of 2 mM. HCMV polymerase is diluted in enzyme dilution buffer containing 50% glycerol, 250 mM NaCl, 10 mM HEPES (pH 7.5), 100 μg/ml BSA, and 0.01% sodium azide. […] Plates are incubated 10 min. at 37° C., then equilibrated to room temperature, and counted on a Packard Topcount. Linear regressions are performed and IC50's are calculated using computer software.
A modified version of the above HCMV polymerase assay is performed as described above, but with the following changes: Compounds are diluted in 100% DMSO until final dilution into assay buffer. […] In Table 1, the term “nd” refers to activity data not determined.

[3] = target: HSV polymerase (Human herpesvirus 1, UniProt P04293); test: HSV polymerase assay (Table 1, viral polymerase inhibition); assay type: biochemical; settings: at a concentration of 20 μM; read-out: percent inhibition of the viral polymerase, HSV
Chain of HSV polymerase (P04293 whole entry): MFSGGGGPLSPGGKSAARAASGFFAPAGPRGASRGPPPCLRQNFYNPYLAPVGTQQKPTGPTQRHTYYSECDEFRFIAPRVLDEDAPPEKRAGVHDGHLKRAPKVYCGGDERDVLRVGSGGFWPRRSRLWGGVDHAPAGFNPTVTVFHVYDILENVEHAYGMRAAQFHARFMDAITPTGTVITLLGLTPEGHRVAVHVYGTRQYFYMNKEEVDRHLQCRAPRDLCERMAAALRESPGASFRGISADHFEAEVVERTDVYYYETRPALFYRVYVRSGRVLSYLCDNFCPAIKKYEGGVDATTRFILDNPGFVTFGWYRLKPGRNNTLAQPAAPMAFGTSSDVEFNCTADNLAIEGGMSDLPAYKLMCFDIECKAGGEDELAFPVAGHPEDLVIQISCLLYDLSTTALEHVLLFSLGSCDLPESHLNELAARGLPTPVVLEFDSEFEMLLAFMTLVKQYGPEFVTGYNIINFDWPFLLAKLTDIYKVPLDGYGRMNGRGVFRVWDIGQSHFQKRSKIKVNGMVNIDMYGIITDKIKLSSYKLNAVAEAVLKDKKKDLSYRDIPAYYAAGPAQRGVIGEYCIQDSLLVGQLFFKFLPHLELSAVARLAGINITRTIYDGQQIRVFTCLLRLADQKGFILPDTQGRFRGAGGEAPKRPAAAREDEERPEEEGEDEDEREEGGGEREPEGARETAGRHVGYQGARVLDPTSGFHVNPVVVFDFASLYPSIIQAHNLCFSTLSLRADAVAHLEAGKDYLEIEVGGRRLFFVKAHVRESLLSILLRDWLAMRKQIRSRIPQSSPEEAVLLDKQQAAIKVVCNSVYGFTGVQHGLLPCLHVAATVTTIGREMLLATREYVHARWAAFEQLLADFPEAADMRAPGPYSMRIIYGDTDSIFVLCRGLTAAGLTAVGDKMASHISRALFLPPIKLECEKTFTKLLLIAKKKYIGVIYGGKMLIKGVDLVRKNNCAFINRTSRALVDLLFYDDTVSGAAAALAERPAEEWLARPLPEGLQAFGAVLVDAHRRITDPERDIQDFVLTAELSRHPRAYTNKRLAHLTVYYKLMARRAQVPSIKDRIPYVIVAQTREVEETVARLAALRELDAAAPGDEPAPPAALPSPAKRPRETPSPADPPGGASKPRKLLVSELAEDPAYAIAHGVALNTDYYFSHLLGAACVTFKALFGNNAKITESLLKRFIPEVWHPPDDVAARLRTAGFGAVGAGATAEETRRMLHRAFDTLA

Structure (SMILES)	inhibition at 20 µM [1] [%]	melting point	inhibition at 20 µM [2] [%]	inhibition at 20 µM [3] [%]
O=C(NCc1ccc(Cl)cc1)c1nnc2ccc(CO)cc2c1O [Example 4, N-(4-chlorobenzyl)-4-hydroxy-6-(hydroxymethyl)-3-cinnolinecarboxamide]	51	296 to 298 °C	–	–
O=C(NCc1ccc(Cl)cc1)c1nnc2ccc(I)cc2c1O [Comp. 2, N-(4-chlorobenzyl)-4-hydroxy-6-iodo-3-cinnolinecarboxamide]	> 100	307 to 308 °C	–	–
O=C(NCc1ccc(Cl)cc1)c1nnc2ccc(CN3CCOCC3)cc2c1O [Example 5, N-(4-chlorobenzyl)-4-hydroxy-6-(morpholinylmethyl)-3-cinnolinecarboxylate]	–	277 to 280 °C (dec.)	–	–
COC(=O)c1ccc2nnc(C(=O)NCc3ccc(Cl)cc3)c(O)c2c1 [Example 3, Methyl 3-{[(4-chlorobenzyl)amino]carbonyl]-4-hydroxy-6-cinnolinecarboxylate]	50	308 to 310 °C	–	–
O=C(NCc1ccc(Cl)cc1)c1n[nH]c2ccccc2c1=O [Comp. 1, N-(4-chlorobenzyl)-4-oxo-1,4-dihydro-3-cinnolinecarboxamide]	90	269 to 271 °C	10.1	20.8
